# Experiments:
# CypA [1] = molecular target: T1, CypA (Homo sapiens, UniProt P62937); assay: Competitive fluorescence polarization binding assay
# From the text: Fluorescence polarization (FP) is a widely used technique for measuring ligand-receptor binding in solution systems. Free fluorescent probes in the free state rotate rapidly in the system and the emitted fluorescence is mostly depolarized light. Once the probe binds to a larger molecule, the rotation of the molecule is restricted, and the emission of polarized light increases.
# intracellular CypA = molecular target: T2, intracellular CypA (Homo sapiens, UniProt P62937); assay: Fluorescence competition flow cytometry with CsA-FITC probe in Jurkat cells; type: cell-based; details: CsA-FITC labelled Jurkat cells
# T2 construct: endogenous in cells; host or cells: Jurkat
# insulin = assay: Basal and glucose-stimulated insulin secretion, ELISA; type: in vivo, mice
# IL-2 = IL-2 secretion of activated Jurkat cells, ELISA; type: cell-based; details: 4MCsA up to 5 μM, 24 h PMA and ionomycin stimulation
# Protocol: Meanwhile, the present invention further examined the secretion of IL-2 protein downstream of T-cell activation in which NFAT was involved, and the IL-2 protein content in the culture medium was measured using the ELISA method after 24 h of PMA and ionomycin stimulation.
# albumin (BSA) = albumin (BSA) (Bos taurus, UniProt P02769); assay: Albumin cysteine reaction site, bottom-up peptide LC-ESI-MS; details: pancreatin digest, peptide GLVLIAFSQYLQQCPFDEHVK
# Protocol: The complex of Example 4 was denatured with urea, and the diluted protein sample was added in the proportion of pancreatin:protein=1:50. After enzymatic hydrolysis at 37° C. for 18 h, the peptide sample was desalted using Pierce® Spin Columns (Thermo Fisher) desalting column. The eluate was eluted with 70% acetonitrile, lyophilized, dissolved with 0.1% formic acid in water, and the peptide was analyzed by LC-ESI-MS, and the modified sites were analyzed using BioPharma Finder software (Thermo Fisher).
# CRP = assay: Serum CRP in high-fat diet-induced atherosclerotic mice; type: in vivo; details: ApoE-/- mice, 5 mg/kg weekly, 9 weeks
# Protocol: After successful modeling of atherosclerotic mice, the effect of the compounds on the development of cardiovascular disease was evaluated by assessing the risk of developing cardiovascular disease in the body by measuring CRP levels in the serum of experimental mice given weekly tail vein injections of 5 mg/kg 4MCsA for 9 weeks as described in Example 23.
# TNF-a, IL-1β = assay: Serum inflammatory factors in DB mice, ELISA; type: in vivo; details: 42 days of administration
# THP-1 cells = assay: Transwell CypA-induced THP-1 cell migration; type: cell-based; details: 200 ng/ml CypA, 1 hour
# [2] = Hepatorenal toxicity evaluation, serum ALT, AST, creatinine, urea; details: 50 days
# CD8T cells = assay: CD8 T cell infiltration in the tumor microenvironment, frozen section immunofluorescence; type: in vivo, mice; details: tumor frozen sections
# Protocol: The thickness of the frozen section is required to be 4-8 μm, place it at room temperature for 30 min after taking it out from −80° C., fix it in acetone at 4° C. for 10 min, wash with PBS, 5 min×3; block with 5-10% normal goat serum (diluted in PBS) and incubate at room temperature for 10 minutes. […] PBS flush, 5 min×3 times; add the appropriately diluted biotin-labeled secondary antibody (diluted in 1% BSA-PBS) dropwise, and incubate at 37° C. for 90-120 minutes; or second-generation horseradish enzyme-labeled streptavidin working solution, incubate at 37° C. or room temperature for 10-30 minutes; the PBS was washed 5 minutes×3 times, mounted and photographed using an inverted fluorescence microscope. Finally, ImageJ was used for statistical analysis.
# [3] = test system: CT26-LUC mouse colon cancer cells; assay: CT26-LUC mouse colon cancer tumor model; type: in vivo; details: Balb/C mice, subcutaneous CT26-LUC, 5 mg/kg, three weeks
# Protocol: This example establishes a mouse tumor model to reflect the effect of the drug by measuring the size of the tumor.
# CT26-LUC mouse colon cancer cells were inoculated subcutaneously on the dorsal side of Balb/C mice in an amount of […]. Six days later, the tumor size was about 100 mm^3. The simultaneous administration was measured with vernier caliper and the administration dose of 4MCsA was 5 mg/kg. The tumors were measured once every two days and the tumor size was counted. The experiment was terminated after three weeks.
# IL-8 = assay: CypA-stimulated IL-8 transcription in THP1 cells, RT-PCR; type: cell-based; details: CypA 12 hours, medium with 0.1% BSA
# NFAT = NFAT dephosphorylation in PMA/ionomycin activated Jurkat cells, Western blot; type: cell-based; details: 1.5 h preincubation, 25 nM PMA and 1 μg/mL ionomycin 2 h
# From the text: Based on this, the present inventors investigated the effect of molecules on NFAT signal transduction during JurkatT cell activation by ionomycin and PMA. […] After the collection of cells, the dephosphorylation level of NFAT protein was detected by extraction, electrophoresis, transfer printing, and NFAT antibody. Dephosphorylation of NFAT results in two bands, phosphorylated and nonphosphorylated.
# [4] = test system: HEK293 human kidney cells; assay: MTT cytotoxicity; type: cell-based; details: HEK293, medium with 4% BSA, 30 hours, up to 50 μM
# [5] = Serum blood lipid markers in high-fat diet-induced atherosclerotic mice; type: in vivo; details: ApoE-/- mice, 5 mg/kg once a week, 9 weeks
# Protocol: A mouse model of atherosclerosis induced by a high-fat diet was established as described in Example 23 and administered in groups, 4MCsA at 5 mg/kg or placebo via tail vein once a week for 9 consecutive weeks, after which the mice were euthanized and serum was collected for routine lipid profile testing.
# [6] = Fasting blood glucose and glycated hemoglobin in T2DM mouse models; type: in vivo, mice
# From the text: To effectively evaluate the effect of the drug on T2DM, this example selected DB mice and high fat diet-induced obese mouse models (HFD mice) as two different predisposing mouse models of type 2 diabetes as subjects.
# [7] = Aortic lesion extent in high-fat diet induced atherosclerotic mice, oil red O; type: in vivo, ApoE gene-deficient C57BL/6J mice; details: ApoE-/- mice, Western diet, 5 mg/kg/week tail vein, 9 weeks
# Protocol: Five-week-old ApoE gene-deficient C57BL/6J mice were randomly divided into two groups and fed with the Western diet for high-fat induction. From the 7th week, the experimental group received 4MCsA at a dose of 5 mg/kg/week via tail vein injection for 9 weeks. At the end of the experiment, the experimental animals were euthanized, dissected, and perfused with 10 mL of tissue fixative (4% paraformaldehyde) and 10 mL of […] from the right atrial appendage. The aorta was isolated intact under stereoscope and extravascular adherent adipose tissue was dissected with fat forceps. The isolated aorta was stained with oil red O, photographed, and recorded, and the lesion area of the aortic arch in the experimental group and the control group was counted with ImageJ, and the difference was statistically significant.
# CypA [8] = assay: Serum CypA content in T2DM model mice, ELISA; type: in vivo; details: DB diabetic mice, tail vein weekly for 3 weeks
# From the text: This example examined the effect of drugs on serum CypA contents in mice using db/db genetically engineered mice deficient in leptin receptors (DB mice) as a T2DM model (C57 mice as a healthy control group).
# Jurkat cells = assay: High resolution mass spectrometry determination of molecular penetration in Jurkat cells; type: in vitro ADME; details: 5 μM compound, 37° C., 2 hours
# From the text: For direct detection of molecular penetration, intracellular compound concentrations were quantified by an external standard method using a QE-Focus mass spectrometer.
# The m/z signal of the corresponding molecule is selected to perform peak extraction on the chromatogram to obtain an ion chromatogram (EIC) corresponding to the extraction of the molecule, and then the concentration of the extract is quantified using the peak area under the curve of the EIC of the cell extract.
# CypA [9] = molecular target: T1, CypA; assay: PPIase activity, chymotrypsin hydrolysis of N-Succinyl-Ala-Ala-Pro-Phe p-nitroanilide; type: biochemical; details: 50 nM CypA, 250 μg/mL chymotrypsin, 80 μM substrate peptide; read-out: IC50, CypA enzymatic activity
# Protocol: The effect of inhibitors on CypA enzyme activity was determined using the chymotrypsin hydrolysis of N-Succinyl-Ala-Ala-Pro-Phe p-nitroanilide substrate peptide. […] When catalyzed by proline cis-trans isomerase, its configuration changes from cis to trans, which can be specifically cleaved by chymotrypsin and release p-nitroanilide with maximum absorption around 390 nm. Thus, the stronger the CypA enzyme activity is, the faster the substrate is degraded, and the faster the absorbance at 390 nm increases. Kinetic monitoring was initiated by the addition of 250 μg/mL chymotrypsin and finally, 80 μM of an ultra-dry substrate peptide solution (470 mM LiCL in trifluoroethanol) using a microplate reader with an autosampler after binding to different concentrations of inhibitors using 50 nM CypA.
# [10] = Insulin tolerance test (ITT); type: in vivo, mice
# Protocol: Insulin signaling response was further measured by performing an insulin sensitivity test (insulin tolerance test, ITT) on each of the two mice in Example 15. After the mice were fasted for 6 hours, insulin (2 U/kg for DB mice and 1 U/kg for HFD mice) was injected intraperitoneally, and then the blood glucose contents were measured at different time points.
# [11] = Glucose tolerance test (GTT); type: in vivo, mice
# [12] = Serum ALT, AST in high-fat diet-induced atherosclerotic mice; type: in vivo; details: ApoE-/- mice, 5 mg/kg once a week, 9 weeks
# From the text: Atherosclerosis model in mice was induced and administered as described in Example 25. At the end of the experimental period, the mice were euthanized and serum was taken for determination of ALT and AST contents.
# [13] = DB and HFD mice, once weekly tail vein, compared to CsA
# [14] = HFD mice, within 36 hours on day 23 of dosing
# [15] = HFD mice, within 60 hours on day 17 of dosing
# T1 sequence (P62937 whole entry, species assumed): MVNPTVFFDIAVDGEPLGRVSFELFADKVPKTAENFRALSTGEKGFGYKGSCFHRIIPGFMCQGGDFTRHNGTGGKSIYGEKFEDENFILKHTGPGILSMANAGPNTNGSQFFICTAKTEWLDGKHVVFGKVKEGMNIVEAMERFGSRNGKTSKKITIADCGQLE
# T2 sequence (P62937 whole entry): as the sequence (P62937 whole entry, species assumed) above
# Chain of albumin (BSA) (P02769 25-607): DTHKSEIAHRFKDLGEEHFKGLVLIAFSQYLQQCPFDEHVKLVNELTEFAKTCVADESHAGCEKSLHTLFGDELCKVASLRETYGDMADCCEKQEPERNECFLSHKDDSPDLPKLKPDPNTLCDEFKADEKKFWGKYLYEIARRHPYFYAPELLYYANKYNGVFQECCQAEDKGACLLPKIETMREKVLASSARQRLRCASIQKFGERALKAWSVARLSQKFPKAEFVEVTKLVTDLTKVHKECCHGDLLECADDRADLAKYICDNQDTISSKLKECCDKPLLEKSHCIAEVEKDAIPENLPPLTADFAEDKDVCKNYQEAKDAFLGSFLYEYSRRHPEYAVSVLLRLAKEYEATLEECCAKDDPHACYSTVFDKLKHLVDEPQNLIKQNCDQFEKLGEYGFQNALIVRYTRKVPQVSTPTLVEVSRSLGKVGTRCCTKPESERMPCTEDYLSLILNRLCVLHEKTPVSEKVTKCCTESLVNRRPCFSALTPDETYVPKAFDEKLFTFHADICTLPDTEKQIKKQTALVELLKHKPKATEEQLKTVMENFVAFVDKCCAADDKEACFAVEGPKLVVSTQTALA
smiles,measurement,setting,value
"CCC1NC(=O)C(C(O)C(C)CC=Cc2ccc(C(=O)NCCOCCNC(=S)Nc3ccc(-c4c5ccc(=O)cc-5oc5cc(O)ccc45)c(C(=O)O)c3)cc2)N(C)C(=O)C(C(C)C)N(C)C(=O)C(CC(C)C)N(C)C(=O)C(CC(C)C)N(C)C(=O)C(C)NC(=O)C(C)NC(=O)C(CC(C)C)N(C)C(=O)C(C(C)C)NC(=O)C(CC(C)C)N(C)C(=O)CN(C)C1=O (stereo not shown) [CsA-FITC, reference compound]",Kd,"CypA [1]; fluorescence polarization, probe itself, read-out: binding constant Kd with CypA",14.8 ± 0.7 nM
same,proportion of fluorescent cells,intracellular CypA,95.30%
CC=CCC(C)C(O)C1C(=O)NC(CC)C(=O)N(C)CC(=O)N(C)C(CCCCNC(=O)CCCCCN2C(=O)C=CC2=O)C(=O)NC(C(C)C)C(=O)N(C)C(CC(C)C)C(=O)NC(C)C(=O)NC(C)C(=O)N(C)C(CC(C)C)C(=O)N(C)C(CC(C)C)C(=O)N(C)C(C(C)C)C(=O)N1C (stereo not shown) [Compound 4MCsA],basal level of insulin,insulin; DB mice,little effect
same,glucose-stimulated insulin secretion vs DB ctrl,insulin; DB mice,no significant difference
same,glucose-stimulated insulin secretion vs C57 ctrl,insulin; healthy C57 mice,increased
same,secretion of IL-2,IL-2,hardly affected
same,modification site on BSA,albumin (BSA),Cys34
same,CRP content in the serum,CRP,very significantly reduce
same,level of IL-1β,"TNF-a, IL-1β",significantly reduce
same,level of TNF-a,"TNF-a, IL-1β",significantly reduce
same,migration activity promoted by CypA,THP-1 cells,significantly abolished
same,ALT level,[2]; C57 healthy mice,remained close to those of healthy controls
same,AST level,[2]; C57 healthy mice,remained close to those of healthy controls
same,urea level,[2]; C57 healthy mice,remained close to those of healthy controls
same,creatinine level between groups,[2]; DB mice,no difference
same,"hepatorenal toxicity (ALT, AST)",[2]; DB mice,not further enhanced
same,urea level between groups,[2]; DB mice,no difference
same,infiltration of CD8T cells in the tumor microenvironment,CD8T cells,promote the infiltration
same,tumor size,[3],certain antitumor effect
same,eCypA-increased transcription level of mRNA of IL-8,IL-8,significantly inhibited
same,NFAT dephosphorylation induced by PMA and ionomycin,NFAT,no significant effect
same,"cytotoxicity, cell survival by MTT",[4],little cytotoxicity
same,HDL-C content,[5],increased
same,TC content,[5],no significant effect
same,TC/HDL-C,[5],significantly reduce
same,TG content,[5],no significant effect
same,serum LDL-C content,[5],significantly decreased
same,fasting blood glucose,[6]; [13],significantly decreased
same,glycated hemoglobin contents,[6]; [13],decreased
same,fasting blood glucose vs C57 ctrl,"[6]; normal C57 mice, 5 mg/kg/week, after 5 weeks",comparable to the normal group
same,Ki,"CypA [1]; 50 nM CypA, 20 nM CsA-FITC probe",198 ± 17 nM
same,lesion area of the aortic arch vs control group,[7],significantly reduced
same,blood CypA contents,CypA [8],decreased
same,effect on the intracellular fluorescence signal,intracellular CypA,very little effect
same,Intracellular conc. (μM),Jurkat cells,not detected
same,IC50,CypA [9],22.6 ± 4.3 nM
same,dose dependence of the effect on ITT,"[10]; DB mice, 1 and 5 mg/kg/week",dose-dependent
same,insulin sensitivity (ITT),"[10]; DB mice, insulin 2 U/kg i.p.",significantly improved
same,ITT AUC compared with CsA,[10]; HFD mice,lower AUC
same,insulin resistance caused by obesity (ITT),"[10]; HFD mice, insulin 1 U/kg i.p.",attenuated insulin resistance
same,GTT AUC,[11]; C57 healthy mice,less than that in CsA group
same,GTT area under the curve (AUC),"[11]; DB mice, 5 mg/kg group vs Ctrl",significantly reduced
same,glucose tolerance status (GTT),"[11]; DB mice, 5 mg/kg, after 5 weeks, glucose 1 g/kg i.p.",significantly improved
same,GTT,[11]; [14],significant improvement
same,GTT AUC,[11]; [14],significant decrease
same,GTT,[11]; [15],remained significantly improved
same,GTT AUC,[11]; [15],significantly reducing
same,activity of ALT in the serum,[12],no significant change
same,activity of AST in the serum,[12],no significant change
